The results in this text go back to patent publication US10017542B2, “Antimicrobial peptides and methods of use thereof” (priority 2015, dated 2018).

For assay [1], the system named is B. thailandensis. Nature of the assay: microbe, parasite or virus in culture. Particulars: Burkholderia thailandensis, 3 h.
Assay [2] has as its system Pseudomonas Xen5. Nature of the assay: Antibacterial activity, microtiter dilution method. Format: cell-based. Particulars: 24 hours, 37 degrees.
Assay [3] deals with A. baumanii. Particulars: 24 h.
Description: (§1) Briefly, cells were grown overnight in media specified for each strain, and were diluted in the same media. Serial dilutions of the peptides were added to microtiter plates in a volume of 50 ul, followed by the addition of 50 ul of bacteria or fungi, 5×10^5 CFU/ml. Plates were incubated at 37 degrees for 24 hours and the Minimum Inhibitory Concentrations (MICs) were determined as the lowest peptide concentration that inhibited 50% of bacterial growth.
The subject of assay [4] is E. coli. Particulars: 24 h.
Description: (§2) Measurement of antimicrobial and anti-fungal activity was determined by a standard micrometer dilution method. Briefly, cells were grown overnight in media specified for each strain, and were diluted in the same media. Serial dilutions of the peptides were added to microtiter plates in a volume of 50 ul, followed by the addition of 50 ul of bacteria or fungi, 5×10^5 CFU/ml. Plates were incubated at 37 degrees for 24 hours and the Minimum Inhibitory Concentrations (MICs) were determined as the lowest peptide concentration that inhibited 50% of bacterial growth.
Assay [5] relates to E. cloaca. Particulars: 24 h.
Description: as §2
The subject of assay [6] is bacterial isolates of Table 7 (A. baumanii, E. coli, E. cloaca, Pseudomonas, Staphylococcus).
Description: as §1
For assay [7], the system named is C. krusei. Particulars: 24 h.
Description: as §2
In assay [8] the test system is C. tropicalis. Particulars: 24 h.
Description: as §2
For assay [9], the system named is fungal isolates of Table 8 (C. albicans, C. krusei, C. tropicalis).
Description: as §2
The subject of assay [10] is all bacteria tested in Table 9. Nature of the assay: In vitro bactericidal activity screening, average across all bacteria. Format: cell-based. Particulars: average value across all bacteria.
The subject of assay [11] is Burkholderia cepacia strain Toronto (B.c.). Nature of the assay: In vitro bactericidal activity screening, endpoint titration. Particulars: last concentration giving greater than two-logs reduction in CFU vs. saline control, 10^6 CFU/ml, 37° C.
Assay [12] relates to Actinobacillus actinomycetemcomitans strain A7154 (A.a.). The description is as above. Particulars: last concentration giving greater than two-logs reduction in CFU vs. saline control.
Assay [13] deals with Fusobacterium nucleatum strain 1594 (F.n.). The description is as above. Particulars: last concentration giving greater than two-logs reduction in CFU vs. saline control.
Assay [14] has as its system Escherichia coli strain (E.c.). The assay is described as above. Particulars: last concentration giving greater than two-logs reduction in CFU vs. saline control.
Assay [15] relates to Pseudomonas aeruginosa strain (P.a.). The assay is described as above. Particulars: last concentration giving greater than two-logs reduction in CFU vs. saline control.

Where a SMILES comes first, the peptide text is derived from it. [ ]: non-standard residue; d: D form. Orn = NCCC[C@H](N)C(=O)O

With `CC(C)(O/N=C(\C(=O)N[C@@H]1C(=O)N2C(C(=O)[O-])=C(C[n+]3ccccc3)CS[C@H]12)c1csc(N)n1)C(=O)O` [Ceftazidime], the concentration for a half-maximal effect (EC50) (as a rule, the concentration that produces a half-maximal response) in assay [1] came to 39.1 µM.

In the case of `CC[C@H](C)[C@H](NC(=O)[C@H](CCCNC(=N)N)NC(=O)[C@H](C)NC(=O)[C@H](CC(C)C)NC(=O)[C@@H](N)CCCNC(=N)N)C(=O)N[C@H](C(=O)NCC(=O)NCC(=O)N[C@@H](Cc1ccccc1)C(=O)N[C@@H](C)C(=O)N[C@@H](CCCN)C(=O)N[C@@H](CCCN)C(=O)N[C@@H](Cc1ccccc1)C(=O)N[C@@H](C)C(=O)N[C@@H](CCCN)C(=O)N[C@@H](CCCN)C(=O)N[C@@H](Cc1ccccc1)C(=O)N[C@@H](CCCN)C(=O)N[C@@H](CCCN)C(=O)N[C@@H](Cc1ccccc1)C(=O)N[C@@H](C)C(=O)N[C@@H](CCCN)C(=O)N[C@@H](CCCN)C(=O)N[C@@H](Cc1ccccc1)C(=O)N[C@@H](C)C(=O)N[C@@H](CCCN)C(=O)N[C@@H](Cc1ccccc1)C(=O)N[C@@H](C)C(=O)N[C@@H](Cc1ccccc1)C(=O)N[C@@H](C)C(=O)N[C@@H](Cc1ccccc1)C(=O)O)C(C)C` [RP500, RLARIVGGFAOOFAOOFOOFAOOFAOFAFAF] (H-RLARIVGGFA[Orn][Orn]FA[Orn][Orn]F[Orn][Orn]FA[Orn][Orn]FA[Orn]FAFAF-OH; N-terminus and C-terminus assumed), the IC50 (as a rule, the concentration at which inhibition is half-maximal) is 0.5 µM in [2]; 7.6 µM in assay [3]; 3.8 µM in [4]; 7.6 µM in assay [5]; 5.3 µM in assay [6].

In the case of `CSCC[C@H](NC(=O)[C@H](Cc1c[nH]c2ccccc12)NC(=O)[C@H](CC(C)C)NC(=O)[C@H](C)N)C(=O)N[C@H](C(=O)N[C@@H](CC(C)C)C(=O)N[C@@H](CCCN)C(=O)N[C@@H](CCCN)C(=O)N[C@@H](CCCN)C(=O)N[C@H](C(=O)N[C@@H](CC(C)C)C(=O)N[C@@H](CCCN)C(=O)N[C@@H](C)C(=O)N[C@@H](CCCN)C(=O)N[C@@H](C)C(=O)N[C@@H](CCCN)C(=O)N[C@@H](C)C(=O)N[C@@H](CC(C)C)C(=O)N[C@@H](CC(N)=O)C(=O)N[C@@H](C)C(=O)N[C@H](C(=O)N[C@@H](CC(C)C)C(=O)N[C@H](C(=O)NCC(=O)N[C@@H](C)C(=O)N[C@@H](CC(N)=O)C(=O)N[C@@H](C)C(=O)O)C(C)C)C(C)C)C(C)C)[C@@H](C)O` [RP507, ALWMTLOOOVLOAOAOALNAVLVGANA] (H-ALWMTL[Orn][Orn][Orn]VL[Orn]A[Orn]A[Orn]ALNAVLVGANA-OH; N-terminus and C-terminus assumed), the concentration for half-maximal inhibition (IC50) in assay [7] stood at 20 µM; in assay [8], 40 µM; in assay [9] it was 43.3 µM.

On to “FAFAFKAFKKAFKKFKKAFKKAFGPGRFAKKFAKKFKKFAKKFAKFAFAF [RP-433]”, for which, in [10], the “Two-log Reduction Concentration Ave.” value is reported as 0.46 μM. Further, the “Two-log Reduction Concentration” value stood at 0.12 μM in assay [11]; 0.10 μM in [12]; 1.25 μM in assay [13]; 0.63 μM in [14]; 0.90 μM in [15].

As to FARKFLKKFKRFAKKFVRFAFAF [SEQ ID NO: 6], the “Two-log Reduction Concentration Ave.” value in [10] is 1.67 μM. In addition, the “Two-log Reduction Concentration” value in assay [11] was 1.25 μM; in assay [12], 0.40 μM; in [13], 3.75 μM; in [14], 0.63 μM.
